Read-outs that look alike come from different tables or passages of the source.
Experiments:
MARK1 = MARK1 (Homo sapiens, UniProt Q9P0L2); conditions: 0.1 µM; binder
DAPK2 = DAPK2 (Homo sapiens, UniProt Q9UIK4); conditions: 0.1 µM; binder
RIPK1 = RIPK1 (Homo sapiens, UniProt Q13546); conditions: 0.1 µM; binder
FLT3(K663Q) = FLT3(K663Q) (Homo sapiens, UniProt P36888, K663Q); conditions: 0.1 µM; binder
MET = MET (Homo sapiens, UniProt P08581); conditions: 0.1 µM; binder
YANK1 = YANK1 (Homo sapiens, UniProt Q8WU08); conditions: 0.1 µM; binder
KIT = KIT (Homo sapiens, UniProt P10721); conditions: 0.1 µM, binder
Sequence of KIT (P10721 whole entry): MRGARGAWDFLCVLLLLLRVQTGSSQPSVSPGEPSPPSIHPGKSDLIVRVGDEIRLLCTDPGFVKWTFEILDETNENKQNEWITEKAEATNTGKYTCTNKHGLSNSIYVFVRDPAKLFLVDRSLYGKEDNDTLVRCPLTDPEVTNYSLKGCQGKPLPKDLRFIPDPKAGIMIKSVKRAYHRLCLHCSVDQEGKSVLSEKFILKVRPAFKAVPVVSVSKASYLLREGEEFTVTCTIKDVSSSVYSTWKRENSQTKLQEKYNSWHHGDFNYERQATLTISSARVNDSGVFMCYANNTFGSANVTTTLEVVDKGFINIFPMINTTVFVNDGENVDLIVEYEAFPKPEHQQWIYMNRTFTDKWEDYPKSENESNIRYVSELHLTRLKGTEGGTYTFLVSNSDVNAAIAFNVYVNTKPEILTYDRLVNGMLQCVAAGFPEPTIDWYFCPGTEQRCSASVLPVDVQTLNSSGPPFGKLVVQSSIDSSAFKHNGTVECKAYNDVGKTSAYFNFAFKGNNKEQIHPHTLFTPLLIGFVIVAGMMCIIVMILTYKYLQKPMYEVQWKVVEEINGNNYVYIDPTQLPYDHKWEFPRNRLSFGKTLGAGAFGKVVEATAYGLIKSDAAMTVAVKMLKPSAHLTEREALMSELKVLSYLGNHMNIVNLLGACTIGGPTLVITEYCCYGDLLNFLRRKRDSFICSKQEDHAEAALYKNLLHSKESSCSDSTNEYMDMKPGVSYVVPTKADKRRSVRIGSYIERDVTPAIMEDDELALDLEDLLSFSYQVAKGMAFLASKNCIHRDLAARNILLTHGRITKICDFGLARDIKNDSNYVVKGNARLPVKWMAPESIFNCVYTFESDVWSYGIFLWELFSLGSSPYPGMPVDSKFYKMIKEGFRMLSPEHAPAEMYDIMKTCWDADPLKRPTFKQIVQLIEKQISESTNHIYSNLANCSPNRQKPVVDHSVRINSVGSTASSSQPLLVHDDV

PIK3CA(E545K) = PIK3CA(E545K) (Homo sapiens, UniProt P42336, E545K); conditions: 0.1 µM; binder
RIOK1 = RIOK1 (Homo sapiens, UniProt Q9BRS2); conditions: 0.1 µM; binder
AURKA = AURKA (Homo sapiens, UniProt O14965); conditions: 0.1 µM; binder
AXL = AXL (Homo sapiens, UniProt P30530); conditions: 0.1 µM; binder
PYK2 = PYK2 (Homo sapiens, UniProt Q14289); conditions: 0.1 µM; binder
Sequence of PYK2 (Q14289 whole entry): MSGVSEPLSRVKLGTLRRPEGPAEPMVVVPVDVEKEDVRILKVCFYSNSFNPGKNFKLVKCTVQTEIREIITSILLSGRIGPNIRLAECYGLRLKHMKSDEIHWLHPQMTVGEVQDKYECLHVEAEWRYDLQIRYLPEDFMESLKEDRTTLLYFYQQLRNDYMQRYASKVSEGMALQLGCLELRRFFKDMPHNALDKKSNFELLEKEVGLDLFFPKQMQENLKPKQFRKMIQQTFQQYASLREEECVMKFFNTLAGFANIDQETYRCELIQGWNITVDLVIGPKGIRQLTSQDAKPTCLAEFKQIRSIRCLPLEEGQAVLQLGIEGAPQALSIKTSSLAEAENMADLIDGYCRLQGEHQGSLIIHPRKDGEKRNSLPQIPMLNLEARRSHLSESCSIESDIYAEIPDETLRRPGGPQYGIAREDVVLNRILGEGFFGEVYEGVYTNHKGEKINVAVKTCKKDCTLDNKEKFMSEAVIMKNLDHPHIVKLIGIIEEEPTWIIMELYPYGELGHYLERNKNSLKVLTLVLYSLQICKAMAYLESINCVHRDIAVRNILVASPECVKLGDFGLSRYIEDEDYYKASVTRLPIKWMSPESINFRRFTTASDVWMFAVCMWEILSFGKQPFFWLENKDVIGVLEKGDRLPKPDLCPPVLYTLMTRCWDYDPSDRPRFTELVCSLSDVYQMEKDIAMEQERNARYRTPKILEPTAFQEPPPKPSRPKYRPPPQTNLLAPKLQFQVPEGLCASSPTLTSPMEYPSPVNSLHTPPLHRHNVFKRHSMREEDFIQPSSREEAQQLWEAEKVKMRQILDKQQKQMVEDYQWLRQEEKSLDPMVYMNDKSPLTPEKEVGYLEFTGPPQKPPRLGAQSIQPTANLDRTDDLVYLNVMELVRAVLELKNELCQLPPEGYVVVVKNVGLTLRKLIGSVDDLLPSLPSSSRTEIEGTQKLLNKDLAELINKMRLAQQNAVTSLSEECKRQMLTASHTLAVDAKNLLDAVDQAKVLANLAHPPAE

PIK3C2B = PIK3C2B (Homo sapiens, UniProt O00750); conditions: 0.1 µM; binder
MEK4 = MEK4 (Homo sapiens, UniProt P45985); conditions: 0.1 µM; binder
Sequence of MEK4 (P45985 whole entry): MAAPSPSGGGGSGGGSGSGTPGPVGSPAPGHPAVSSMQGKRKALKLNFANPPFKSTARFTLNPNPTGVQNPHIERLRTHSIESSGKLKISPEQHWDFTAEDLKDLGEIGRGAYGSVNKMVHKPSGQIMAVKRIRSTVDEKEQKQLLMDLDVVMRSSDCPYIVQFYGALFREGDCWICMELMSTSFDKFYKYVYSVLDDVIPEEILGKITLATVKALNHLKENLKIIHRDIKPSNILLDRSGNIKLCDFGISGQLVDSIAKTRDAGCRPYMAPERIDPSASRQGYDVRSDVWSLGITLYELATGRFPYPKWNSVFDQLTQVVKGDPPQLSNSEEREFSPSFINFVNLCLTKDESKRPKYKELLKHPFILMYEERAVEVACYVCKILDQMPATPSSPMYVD

FLT3(ITD,F691L) = FLT3(ITD,F691L) (Homo sapiens, UniProt P36888, F691L/ITD); conditions: 0.1 µM; binder
AKT2 = AKT2 (Homo sapiens, UniProt P31751); conditions: 0.1 µM; binder
Sequence of AKT2 (P31751 whole entry): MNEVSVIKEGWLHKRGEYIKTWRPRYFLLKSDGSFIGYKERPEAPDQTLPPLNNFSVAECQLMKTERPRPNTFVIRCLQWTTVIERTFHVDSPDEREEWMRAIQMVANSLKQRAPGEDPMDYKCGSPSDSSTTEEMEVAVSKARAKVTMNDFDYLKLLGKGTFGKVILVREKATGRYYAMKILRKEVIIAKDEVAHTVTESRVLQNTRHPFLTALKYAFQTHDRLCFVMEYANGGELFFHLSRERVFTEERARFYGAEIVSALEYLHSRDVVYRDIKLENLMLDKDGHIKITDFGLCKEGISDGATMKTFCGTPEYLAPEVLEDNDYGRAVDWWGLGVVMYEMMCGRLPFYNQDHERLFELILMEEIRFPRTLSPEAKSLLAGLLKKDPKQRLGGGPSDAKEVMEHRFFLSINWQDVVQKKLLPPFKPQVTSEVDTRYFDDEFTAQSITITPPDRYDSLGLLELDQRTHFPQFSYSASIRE

MAK = MAK (Homo sapiens, UniProt P20794); conditions: 0.1 µM; binder
WNK2 = WNK2 (Homo sapiens, UniProt Q9Y3S1); conditions: 0.1 µM; binder
FGR = FGR (Homo sapiens, UniProt P09769); conditions: 0.1 µM; binder
TRKC = TRKC (Homo sapiens, UniProt Q16288); conditions: 0.1 µM; binder
WEE2 = WEE2 (Homo sapiens, UniProt P0C1S8); conditions: 0.1 µM; binder
ZAP70 = ZAP70 (Homo sapiens, UniProt P43403); conditions: 0.1 µM; binder
BIKE = BIKE (Homo sapiens, UniProt Q9NSY1); conditions: 0.1 µM; binder
Sequence of BIKE (Q9NSY1 whole entry): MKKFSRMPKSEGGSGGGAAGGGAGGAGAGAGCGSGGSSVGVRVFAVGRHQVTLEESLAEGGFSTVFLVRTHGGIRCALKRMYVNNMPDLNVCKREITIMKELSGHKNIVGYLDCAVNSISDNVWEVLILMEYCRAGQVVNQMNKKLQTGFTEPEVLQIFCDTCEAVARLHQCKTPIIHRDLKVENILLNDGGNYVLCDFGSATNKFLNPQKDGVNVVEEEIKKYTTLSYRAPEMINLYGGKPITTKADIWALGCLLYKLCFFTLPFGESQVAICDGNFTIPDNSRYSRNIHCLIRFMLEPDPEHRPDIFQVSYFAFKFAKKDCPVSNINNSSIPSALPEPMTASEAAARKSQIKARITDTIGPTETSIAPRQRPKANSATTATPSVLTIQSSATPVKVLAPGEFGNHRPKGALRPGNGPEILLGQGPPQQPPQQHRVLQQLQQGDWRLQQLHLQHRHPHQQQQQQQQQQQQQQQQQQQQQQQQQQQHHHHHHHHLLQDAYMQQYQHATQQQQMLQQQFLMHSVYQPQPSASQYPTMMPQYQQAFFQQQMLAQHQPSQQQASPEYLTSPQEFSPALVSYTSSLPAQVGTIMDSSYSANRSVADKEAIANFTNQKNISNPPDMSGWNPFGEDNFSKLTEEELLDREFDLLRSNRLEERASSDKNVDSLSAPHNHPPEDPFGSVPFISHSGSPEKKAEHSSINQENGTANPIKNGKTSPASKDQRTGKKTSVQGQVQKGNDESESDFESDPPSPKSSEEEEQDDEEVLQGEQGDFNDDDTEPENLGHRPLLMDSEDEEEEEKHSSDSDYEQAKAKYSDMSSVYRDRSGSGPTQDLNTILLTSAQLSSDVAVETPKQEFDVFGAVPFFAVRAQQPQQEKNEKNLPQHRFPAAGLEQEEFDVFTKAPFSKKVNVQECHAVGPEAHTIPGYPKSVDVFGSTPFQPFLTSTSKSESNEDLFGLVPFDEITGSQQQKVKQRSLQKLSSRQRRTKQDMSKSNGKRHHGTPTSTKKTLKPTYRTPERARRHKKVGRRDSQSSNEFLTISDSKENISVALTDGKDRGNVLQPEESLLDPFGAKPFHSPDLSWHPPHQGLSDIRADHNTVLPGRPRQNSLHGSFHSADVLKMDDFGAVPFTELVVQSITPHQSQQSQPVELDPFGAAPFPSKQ

ABL1(F317I) = ABL1(F317I) (Homo sapiens, UniProt P00519, F317I); conditions: 0.1 µM, binder
PFTAIRE2 = PFTAIRE2 (Homo sapiens, UniProt Q96Q40); conditions: 0.1 µM; binder
CAMK2B = CAMK2B (Homo sapiens, UniProt Q13554); conditions: 0.1 µM; binder
GAK = GAK (Homo sapiens, UniProt O14976); conditions: 0.1 µM; binder
ABL1(Y253F) = ABL1(Y253F) (Homo sapiens, UniProt P00519, Y253F); conditions: phosphorylated; 0.1 µM; binder
PIK3CA(M1043I) = PIK3CA(M1043I) (Homo sapiens, UniProt P42336, M1043I); conditions: 0.1 µM; binder
ADCK3 = ADCK3 (Homo sapiens, UniProt Q8NI60); conditions: 0.1 µM; binder

Sequence of RIPK1 (Q13546 whole entry): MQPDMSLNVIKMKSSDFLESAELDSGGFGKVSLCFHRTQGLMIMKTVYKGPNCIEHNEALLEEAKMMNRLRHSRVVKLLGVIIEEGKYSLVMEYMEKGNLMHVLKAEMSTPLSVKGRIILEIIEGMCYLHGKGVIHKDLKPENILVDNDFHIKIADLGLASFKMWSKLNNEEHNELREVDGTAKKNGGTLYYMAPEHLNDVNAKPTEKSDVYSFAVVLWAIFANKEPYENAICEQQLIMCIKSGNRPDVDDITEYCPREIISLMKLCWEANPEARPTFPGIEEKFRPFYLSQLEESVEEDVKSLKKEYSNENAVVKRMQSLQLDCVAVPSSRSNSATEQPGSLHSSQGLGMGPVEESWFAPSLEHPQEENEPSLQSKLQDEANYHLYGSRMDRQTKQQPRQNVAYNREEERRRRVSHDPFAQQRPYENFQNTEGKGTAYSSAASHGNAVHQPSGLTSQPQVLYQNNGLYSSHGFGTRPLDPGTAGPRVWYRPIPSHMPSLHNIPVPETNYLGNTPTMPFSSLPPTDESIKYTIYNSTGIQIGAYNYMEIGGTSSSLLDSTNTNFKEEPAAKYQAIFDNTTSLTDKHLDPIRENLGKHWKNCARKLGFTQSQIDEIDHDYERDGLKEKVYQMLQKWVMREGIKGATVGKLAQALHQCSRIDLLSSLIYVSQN
Sequence of DAPK2 (Q9UIK4 whole entry): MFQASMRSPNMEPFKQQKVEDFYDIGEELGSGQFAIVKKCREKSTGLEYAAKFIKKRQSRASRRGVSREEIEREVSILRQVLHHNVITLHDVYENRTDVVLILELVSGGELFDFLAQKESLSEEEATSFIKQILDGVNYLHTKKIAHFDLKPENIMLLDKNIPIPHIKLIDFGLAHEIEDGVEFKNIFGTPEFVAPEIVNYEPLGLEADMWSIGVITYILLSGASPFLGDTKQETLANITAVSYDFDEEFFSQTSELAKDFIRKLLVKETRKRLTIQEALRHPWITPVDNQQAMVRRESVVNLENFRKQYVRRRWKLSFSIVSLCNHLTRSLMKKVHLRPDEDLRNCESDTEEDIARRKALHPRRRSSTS

In the case of CNc1ncc2cc(-c3ccc(-c4cccc(C)n4)cc3Cl)c(=O)n(C[C@H]3OC[C@H](N)CO3)c2n1 [compound 6, G-5555], the “Percent Control” value (MARK1) is reported as 100%, the “Percent Control” value (DAPK2) is reported as 100% and the “Percent Control” value (RIPK1) is reported as 100%. The “Percent Control” value (FLT3(K663Q)) was 100%, the “Percent Control” value (MET) was 89% and the “Percent Control” value (YANK1) was 5.3%. The “Percent Control” value (KIT) was 100%, the “Percent Control” value (KIT; autoinhibited) was 82% and the “Percent Control” value (PIK3CA(E545K)) was 85%. The “Percent Control” value (RIOK1) was 100%, the “Percent Control” value (AURKA) was 98% and the “Percent Control” value (AXL) was 100%. For the same molecule, the “Percent Control” value (PYK2) was 100%, the “Percent Control” value (PIK3C2B) was 88% and the “Percent Control” value (MEK4) was 49%. The “Percent Control” value (FLT3(ITD,F691L)) was 56%, the “Percent Control” value (AKT2) was 100% and the “Percent Control” value (MAK) was 90%. The “Percent Control” value (WNK2) was 100%, the “Percent Control” value (FGR) was 100% and the “Percent Control” value (TRKC) was 84%. The “Percent Control” value (WEE2) was 100%, the “Percent Control” value (ZAP70) was 100% and the “Percent Control” value (BIKE) was 100%. The “Percent Control” value (ABL1(F317I); nonphosphorylated) was 100%, the “Percent Control” value (ABL1(F317I); phosphorylated) was 87% and the “Percent Control” value (PFTAIRE2) was 100%. The “Percent Control” value (CAMK2B) was 100%, the “Percent Control” value (GAK) was 51% and the “Percent Control” value (ABL1(Y253F)) was 97%. The “Percent Control” value (PIK3CA(M1043I)) was 76% and the “Percent Control” value (ADCK3) was 100%.

Reference: article doi:10.1101/2021.04.08.439011v1 (biorxiv, 2021)
